The results in this text go back to US12545652B2, “Crystalline forms of a TYK2 inhibitor” (Sareum Limited, priority 2020, dated 2026).

A short description of series [1]: Hepatocyte stability assay, mouse. The conditions noted are these: male, CD-1, pooled hepatocytes. It is filed as in vitro ADME. Here is the method:
(§1) Test and control compounds were incubated with hepatocytes at 37° C. Aliquots were removed at 6 timepoints over a one hour period. Samples were centrifuged and the supernatant fractions analysed for parent compound by mass spectrometry (LC-MS/MS).
(§2) The amount of compound remaining (expressed as %) was determined from the MS response in each sample relative to that in the T=0 samples, and used to determine the half-life and intrinsic clearance of the compound.

A short description of series [2]: Hepatocyte stability assay, human. It is filed as in vitro ADME. Conditions: both sexes, pooled hepatocytes; for half-life: human. As to the method: as §1, §2
Series [3] can be described thus: Hepatocyte stability assay, rat. The class given is in vitro ADME. The conditions noted are these: male, Sprague-Dawley, pooled hepatocytes. Here is the method:
as §1, §2

In series [4] the test system is pSTAT3 in IL-22 stimulated HT29 cells. In words: pSTAT3 inhibition in response to IL-22 stimulation in serum starved HT29 cells. The class given is cell-based. The conditions noted are these: Homo sapiens, HT-29. Here is the method: HT29 cells were serum starved overnight before the four test compounds were diluted to generate a 9-point semi-log dose dilution with a top concentration of 10 μM, plus vehicle control. HT29 cells were incubated with the test compounds for 20 minutes at 37° C. HT29 cells were incubated for a further 15 minutes with 10 ng/ml human IL-22 before cells were fixed with 4% PFA for 10 minutes, and 90% methanol for 30 minutes before being labelled with a phospho-STAT3Y705 antibody (CST #9145). Cells were rinsed three times using 0.5% BSA/PBS solution before being incubated with Alexa-488 anti-rabbit secondary antibodies.
Mean fluorescence intensity of phospho-STAT3 in single cells was analysed by flow cytometry using an Intellicyt iQue instrument and FlowJo software. The IC50 was determined using a four-parameter analysis following removal of background signal and normalisation to the DMSO control.

Series [5] can be described thus: Hepatocyte stability assay, dog. The conditions noted are these: male, Beagle, pooled hepatocytes. It is filed as in vitro ADME. Here is the method:
as §1, §2

Series [6] in a line: Solubility at 25° C. by HPLC of filtrates after equilibration of Form A in solvents. It is filed as physicochemical. The conditions noted are these: for solubility: 25 °C, organic solvent or mixture, thermodynamic from solid.
The target in series [7] is JAK1 (Homo sapiens (Human), UniProt P23458). In words: JAK1 kinase inhibition assay (33P-ATP filter binding, Reaction Biology). Conditions: ratio of IC50 to TYK2 IC50. It is filed as biochemical. As to the method:
(§3) The compound of the formula (1) was assayed for its ability to inhibit TYK2 kinase and other JAK kinases.
(§4) Substrates and kinases used in the assays are identified in Table 12 below.
(§5) Kinase assays were performed at Reaction Biology Corp., Malvern, Pennsylvania, USA, using the general procedure set out below. In the assays, the ATP concentration was 100 μM and the top compound concentrations were 10 μM.
(§6) Note that the TYK2 and JAK kinase data in Table 7 on page 61 of WO 2015/032423 were generated using an assay in which the ATP concentration was 10 μM whereas, as indicated above, the assay described in the protocol below used an ATP concentration of 100 μM. […]

The target of series [8] is TYK2 kinase (Homo sapiens (Human), UniProt P29597). Description: TYK2 kinase inhibition assay (33P-ATP filter binding, Reaction Biology). The class given is biochemical. Conditions: ratio of IC50 to TYK2 IC50. Here is the method: as §3, §4, §5, §6
Chain of TYK2 kinase (P29597 833-1187): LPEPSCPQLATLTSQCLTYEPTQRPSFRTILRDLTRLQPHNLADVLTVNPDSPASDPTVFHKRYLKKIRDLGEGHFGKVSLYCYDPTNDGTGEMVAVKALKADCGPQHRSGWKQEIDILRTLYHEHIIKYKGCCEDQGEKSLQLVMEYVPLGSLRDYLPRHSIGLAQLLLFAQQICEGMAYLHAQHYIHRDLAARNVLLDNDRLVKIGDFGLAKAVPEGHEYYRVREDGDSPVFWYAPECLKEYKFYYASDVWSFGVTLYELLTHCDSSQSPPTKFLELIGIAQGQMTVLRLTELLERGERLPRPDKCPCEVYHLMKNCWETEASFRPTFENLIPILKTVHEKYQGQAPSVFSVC
Series [9] has as its target JAK3 (Homo sapiens (Human), UniProt P52333). In words: JAK3 kinase inhibition assay (33P-ATP filter binding, Reaction Biology). It is filed as biochemical. As to the method:
as §3, §4, §5, §6

The subject of series [10] is JAK2. In words: JAK2 kinase inhibition assay (33P-ATP filter binding, Reaction Biology). The class given is biochemical. As to the method: as §3, §4, §5, §6
The nature of series [11]: Dynamic vapour sorption (DVS). The class given is physicochemical. As to the method:
Sorption isotherms were obtained using a Hiden Isochema moisture sorption analyser (model IGAsorp), controlled by IGAsorp Systems Software V6.50.48. The sample was maintained at a constant temperature (25° C.) by the instrument controls. The humidity was controlled by mixing streams of dry and wet nitrogen, with a total flow of 250 ml·min^−1. The instrument was verified for relative humidity content by measuring three calibrated Rotronic salt solutions (10-50-88%). The weight change of the sample was monitored as a function of humidity by a microbalance (accuracy +/−0.005 mg). A defined amount of sample was placed in a tared mesh stainless steel basket under ambient conditions. A full experimental cycle typically consisted of three scans (sorption, desorption and sorption) at a constant temperature (25° C.) and 10% RH intervals over a 0-90% range (60 minutes for each humidity level).

Series [12] is described as follows: Compression stability test (10×10^4N force). It is filed as physicochemical. As to the method:
Compression stability tests were carried out on samples from two batches of crystalline Form A and samples from two batches of Crystalline Form B. One pair of samples of Form A and Form B was subjected to compression under 10×10^4N force for 23 and 23¾ hours respectively to assess the impact upon form fate and chemical stability.
The other pair of samples of Form A and Form B was subjected to similar compression pressures over an extended duration of 7 days to assess the impact of prolonged compression force upon form fate and chemical stability.

The mark [13] stands for this setting: Human hepatocytes, read-out: T1/2.
[14] abbreviates: IL-22 stimulated serum starved HT29 cells, read-out: pSTAT3 inhibition IC50.

Structures are written as SMILES. Entries after “also recorded” stand apart in the source; their conditions may differ. Read-outs that look alike come from different tables or passages of the source.

Chain of JAK3 (P52333 781-1124): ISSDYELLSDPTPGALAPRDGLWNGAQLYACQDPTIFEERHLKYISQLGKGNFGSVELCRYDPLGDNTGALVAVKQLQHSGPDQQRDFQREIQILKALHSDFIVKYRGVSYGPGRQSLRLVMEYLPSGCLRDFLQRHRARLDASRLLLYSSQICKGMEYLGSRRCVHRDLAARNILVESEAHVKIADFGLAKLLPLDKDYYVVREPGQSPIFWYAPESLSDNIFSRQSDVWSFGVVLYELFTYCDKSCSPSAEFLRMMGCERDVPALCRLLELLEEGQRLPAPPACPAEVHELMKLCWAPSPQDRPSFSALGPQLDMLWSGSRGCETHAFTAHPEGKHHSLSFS
Chain of JAK1 (P23458 866-1154): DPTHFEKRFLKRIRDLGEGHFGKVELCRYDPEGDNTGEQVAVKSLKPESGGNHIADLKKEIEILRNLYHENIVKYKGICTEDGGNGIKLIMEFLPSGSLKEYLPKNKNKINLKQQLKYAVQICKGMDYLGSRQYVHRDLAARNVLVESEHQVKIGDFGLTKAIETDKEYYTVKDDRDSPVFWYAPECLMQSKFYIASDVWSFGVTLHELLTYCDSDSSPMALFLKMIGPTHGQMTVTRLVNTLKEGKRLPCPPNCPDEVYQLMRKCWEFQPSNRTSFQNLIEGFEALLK

Broadly, the IC50 is the midpoint of a concentration-inhibition curve. `NC(=O)c1nc(-c2c(Cl)cccc2Cl)oc1Nc1ccc(C(=O)N2CCOCC2)cc1` [Comparative Compound B, 2-(2,6-dichloro-phenyl)-5-[4-(morpholine-4-carbonyl)-phenylamino]-oxazole-4-carboxylic acid amide, reference compound]: the half-life is 27 min in series [1]; 124 min in series [2] (setting [13]); more than 120 min in [2] (human hepatocytes, read-out: half-life in humans); 14.8 min in series [3]; 53.5 min in series [5]. In [4] (setting [14]), the IC50 is 53 nM.
One may read the Solubility as how much of the substance goes into solution per volume. Low readings indicate a poorly soluble substance, high ones a readily soluble substance. A word on the solubility: it is how much of the substance goes into solution per volume. What is called hepatocyte CLint is the rate of metabolic loss divided by the concentration. Read a high hepatocyte CLint as faster metabolism. On to `NC(=O)c1nc(-c2c(Cl)cccc2Cl)oc1Nc1ccc(C(=O)N2CCS(=O)(=O)CC2)cc1` [Compound (1), 2-(2,6-dichlorophenyl)-5-[4-(1,1-dioxo-1,4-thiazinane-4-carbonyl)anilino]oxazole-4-carboxamide], for which the half-life in [1] is 65.3 min; in series [2] (setting [13]) it was more than 460 min; in series [3], 30.6 min; in series [5] it was more than 460 min. In addition, the “Solubility at 25° C.” value in series [6] (2-Chlorobutane) is less than 1000 µg/mL; in series [6] (4:1 THF/water) it was more than 10000 µg/mL; in series [6] (Cyclohexane) it was less than 1000 µg/mL; in series [6] (DCM), more than 10000 µg/mL; in series [6] (Nitromethane), more than 10000 µg/mL; in series [6] (THF) it was more than 10000 µg/mL. In [6] (Water), the “Solubility at 25° C.” value is less than 1000 µg/mL. In addition, the solubility in series [6] (TBME) was less than 1000 µg/mL; in series [6] (anisole) it was more than 10000 µg/mL; in [6] (heptane, no peak detected in the chromatogram for the filtrate (×100 dilution)) it was less than 1000 µg/mL. The “Selectivity v TYK2: JAK1” value in series [7] is 10.5. Moreover, the “Selectivity v TYK2: TYK2” value in series [8] amounted to 1. In addition, the intrinsic clearance (hepatocyte CLint) in series [2] (Human hepatocytes) and in [5] was less than 3 µL/min/1e6 cells each time. In addition, the IC50 in [4] (IL-22 stimulated HT29 cells, read-out: IC50 against pSTAT3 inhibition) is less than 100 nM; in series [4] (setting [14]) it was 16 nM. In [9] (biochemical assays), the “selectivity for TYK2 compared to JAK3” value is approximately 110 fold. Moreover, in series [9] (ratio of IC50 to TYK2 IC50), the “Selectivity v TYK2: JAK3” value came to 111.6. In addition, in series [10] (biochemical assays), the “selectivity for TYK2 compared to JAK2” value is on record as “approximately 25 fold”. In [10] (ratio of IC50 to TYK2 IC50), the “Selectivity v TYK2: JAK2” value was 26.3.
In the case of `NC(=O)c1nc(-c2c(Cl)cccc2Cl)oc1Nc1ccc(C(=O)N2CCS(=O)(=O)CC2)cc1` [Form B, 2-(2,6-dichlorophenyl)-5-[4-(1,1-dioxo-1,4-thiazinane-4-carbonyl)anilino]oxazole-4-carboxamide], the “XRPD examination of the solid isolated post-DVS” value in series [11] (at 0 and 90% RH) was “no clear evidence of form modification”. In [11] (from 0 to 90% RH, 25° C.), the “DVS total weight gain upon sorption” value is given as “ca. 0.57 wt %”. In addition, the “DVS weight reduction upon the first desorption” value in series [11] (from 50 to 0% RH, 25° C.) is given as “ca. 0.38 wt %”. The DVS hysteresis result in series [11] (repeat desorption and sorption, most evident between 10 and 60% RH) is “ca. 0.11 wt %”. The “HPLC assessment post-compression (chemical stability)” value in series [12] (compression for 7 days) is “no change to the impurity profile; also recorded: no discernible chemical degradation”; in series [12] (compression for ca. 1 day (23 / 23¾ hours), 10×10^4N), “no change to the impurity profile; also recorded: no discernible chemical degradation”. Moreover, the “XRPD examination of solids isolated post-compression (form fate)” value in series [12] (compression for both ca. 1 and 7 days) is “diffraction pattern matching the input Pattern B but of reduced diffraction resolution”.
